In patent US5821330A, “Peptide having inflammation affinity and radioactive diagnostic containing the same” (Nihon Medi-Physics Co., Ltd., priority 1993, dated 1998):
Values joined by “and” are separate entries in the source; they are usually repeats but may differ in a detail not shown here. Equal values may be shown once. Ends that are not written are not given here. Peptide text beside a SMILES is read from it. * marks the point of attachment. Acm = CC(=O)NC*

Assays:
[1] = Safety of the peptides: bolus tail vein administration to rat, observation until five days, dissection; assay type: in vivo; details: for abnormality in tissue checked with the naked eye (hemostatis, pigmentation, discoloration): dissection five days after 8.3 μg per 1.0 g of rat; for abnormality in tissue checked with the naked eye (hemostatis, pigmentation, discoloration) / extreme change in weight, i.e., weight gain or loss: tail vein; for symptoms such as slobber, vomiting, ocular proptosis, and behavioral abnormality: just after bolus tail vein administration, 8.3 μg per 1.0 g of rat; for extreme change in weight, i.e., weight gain or loss: until five days after 8.3 μg per 1.0 g of rat
Protocol: Assuming that clinical dosage to human is 1.0 mg/60 kg, bolus administration of Peptide-1, Peptide 4 and Peptide-5 in an amount of 8.3 μg per 1.0 g of rat and physiological saline as control were made respectively to the tail vein of the rat. Immediately after the administration, behavior of the rat was observed. The observation was continued until five days later; zero minute, ten minutes, three hours, six hours, one day, two days, three days, four days, and five days later. Just after the peptide administration, symptoms such as slobber, vomiting, ocular proptosis, and behavioral abnormality were not observed. Furthermore, extreme change in weight, i.e., weight gain or loss was not observed until five days later. After weighing five days later, the rats were dissected. Abnormality in tissue was checked with the naked eye; abnormality in any tissue was not noted such as hemostatis, pigmentation, or discoloration. These gave estimation that more than 1,000 times administration of the assumed clinical dosage would be safe.

[2] = tested on: inflammation site of inflammation model rats; experiment: Imaging of inflammation sites using indium-111 labeled peptide (turpentine oil inflammation model rats, gamma camera); assay type: in vivo, Sparague-Davley Rats; details: 3.7-7.4 MBq tail vein, mean ± standard error, three rats
Protocol: Peptide-1-DTPA obtained in EXAMPLE 8, in an amount of 100 through 200 nmol was adjusted to pH 5.7 in a 0.1M citrate buffer solution, and then 37 to 74 MBq of indium (^111 In) chloride was added thereto. After agitation, the solution was left as such for 15 minutes. A part of the solution was taken and checked for the labeling percentage by electrophoresis. The radiochemical purity of the target compound was 98%. Peptide-3-Sulfo-SMCC-CHI-DTPA obtained in EXAMPLE 10 was also labeled with In-111 in the same way as above, and the radiochemical purity of the target compound was 90%.
(§1) To the right femoral part of Sparague-Davley Rats weighing about 220 g, 100 μl of turpentine oil was subcutaneously administered. After 24 hours, when inflammation was clearly observed, Ravonal anesthesia was applied; then, Peptide-1-DTPA-indium-111 and Peptide-3-Sulfo-SMCC-CHI-DTPA-indium-111 obtained in EXAMPLE 14 were respectively administered in an amount of 3.7 MBq-7.4 MBq to the respective tail vein. Images were obtained with gamma camera one, three, and six hours later. A site of interest was set on the image, where the ratio ([T]/[B] ratio) of total counts for the inflammation site [T] to total counts for the corresponding normal site of the opposite leg [B] was determined. The [T]/[B] ratio, one hour after the administration, was 2.63 for Peptide-1-DTPA-indium-111 and 2.09 for Peptide-3-DTPA-indium-111, whereby the focal site was evidently imaged.

[3] = tested on: focal region of model rats with infectious disease (Staphylococcus aureus); experiment: Imaging of rat model with infectious disease (Staphylococcus aureus) using technetium-99m labeled peptide; assay type: in vivo, Sparague-Davely Rats; details: 37-74 MBq tail vein, mean ± standard error
Protocol: In 1.0 mL of physiological saline, 10^8 of viable microbe cells of Staphylococcus aureus were suspended. An aliquot of 100 μl was administered intramuscularly to the right femoral region of Sparague-Davely Rats weighing about 220 g. After 24 hours, Ravonal anesthesia was applied to the model rats that had clearly evident inflammation; then, 37-74 MBq of technetium-99m labeled Peptide-6 obtained in […] was administered to the tail vein. Images were obtained with gamma camera one, three, and six hours later respectively. A site of interest was set on the image, and the [T]/[B] ratio was determined.

[4] = tested on: inflammation site of inflammatory model rats; experiment: Imaging of inflammation sites using technetium-99m labeled peptide (turpentine oil inflammation model rats, gamma camera); assay type: in vivo, Sparague-Davley Rats; details: 37-74 MBq tail vein, mean ± standard error, three rats
Protocol: An amount of 240-300 nmol of Peptide-2 obtained in EXAMPLE 2 was taken into each vial, and a volume of a 0.1M phosphate buffer solution (pH 8.0) was added thereto to adjust the whole […] Atmosphere in the vial was replaced with argon; then 180-300 nmol of dithiothreitol was added thereto, The mixture was then allowed to react for one hour at room temperature. Next, 120 nmol of stannous chloride and 740-1110 MBq of sodium pertechnetate were added. The mixture was left for one hour under gentle agitation. Peptide-2 labeled with technetium-99m was yielded. Peptide labeled had radiochemical purity not less than 90%.
Experiments were made for all the peptides those prepared in EXAMPLEs 4, 5, 6 and 7. Each of the peptides was taken, in an amount of 0.2-1.0 μmol, into a vial respectively, and a volume of a 0.1M phosphate buffer solution (pH 8.0) was added thereto to adjust the whole volume to 500 μl. Atmosphere in the respective vial was replaced with argon. To each vial, 500 μl of 1.5-2.2 GBq/ml glucoheptanate labeled with technetium-99m yielded in EXAMPLE 16 was added and quickly agitated. Thereafter, the mixture was allowed to react for 20 minutes in a boiling water bath. Labeling percentage of all the experimented peptides after cooling was 90-95% according to TLC.
as §1
After Ravonal anesthesia was applied to the model rats described in EXAMPLE 18, 37-74 MBq of technetium-99m labeled Peptide-2 obtained in EXAMPLE 15, Peptide-4, Peptide-5, Peptide-6 and Peptide-7 obtained in EXAMPLE 17 were each administered to the respective tail vein. Images were obtained with gamma camera 30 minutes and one, three, and six hours later respectively. A site of interest was set on the image and the [T]/[B] ratio was determined. The [T]/[B] ratio, one hour after the administration, was 3.35 for Peptide-2, 4.98 for Peptide-6, 3.36 for Peptide-7, 4.27 for Peptide-4 and 4.41 for Peptide-5 whereby the focal site was evidently imaged.

[5] = assumed clinical dosage to human 1.0 mg/60 kg, estimate from rat observation

CC(C)C[C@H](NC(=O)[C@H](CC(C)C)NC(=O)[C@H](CCC(=O)O)NC(=O)[C@@H]1CCCN1C(=O)CNC(=O)CNC(=O)[C@@H](N)CCCCN)C(=O)NCC(=O)NCC(=O)N1CCC[C@H]1C(=O)N[C@@H](CO)C(=O)N[C@H](C(=O)O)C(C)C [Peptide-1, KGGPELLGGPSV] (H-KGGPELLGGPSV-OH)
abnormality in tissue checked with the naked eye (hemostatis, pigmentation, discoloration) [1]: not noted
symptoms such as slobber, vomiting, ocular proptosis, and behavioral abnormality [1]: not observed
estimated safe administration relative to the assumed clinical dosage ([1]; rat, in vivo): more than 1,000 times
extreme change in weight, i.e., weight gain or loss [1]: not observed

CC(C)C[C@H](NC(=O)[C@@H](N)CC(C)C)C(=O)NCC(=O)NCC(=O)N1CCC[C@H]1C(=O)N[C@@H](CO)C(=O)N[C@H](C(=O)N[C@@H](CS)C(=O)O)C(C)C [Peptide-3, LLGGPSVC] (H-LLGGPSVC-OH)
[T]/[B] ratio of In-111 labeled peptides in inflammation model rats ([2]; 1 hr. after administration, inflammation site vs opposite normal leg): 2.09 ± 0.18
[T]/[B] ratio of In-111 labeled peptides in inflammation model rats ([2]; 3 hrs. after administration): 2.46 ± 0.29
[T]/[B] ratio of In-111 labeled peptides in inflammation model rats ([2]; 6 hrs. after administration): 2.78 ± 0.15

(PELLGGPSV)×4 in parallel (K)×2 in parallel (KGGC(Acm)GC(Acm)) (PELLGGPSVPELLGGPSVPELLGGPSVPELLGGPSVKKKGGC(Acm)GC(Acm); also: branched Lys scaffold carrying four PELLGGPSV arms) [Peptide-6]
[T]/[B] ratio of Tc-99m labeled peptide in model rats with infectious disease ([3]; 1 hr. after administration, S. aureus intramuscular, right femoral region): 1.92 and 1.92 ± 0.10
[T]/[B] ratio of Tc-99m labeled peptide in model rats with infectious disease ([3]; 3 hrs. after administration, S. aureus model): 1.58 ± 0.05
[T]/[B] ratio of Tc-99m labeled peptide in model rats with infectious disease ([3]; 6 hrs. after administration, S. aureus model): 1.52 ± 0.17
[T]/[B] ratio of Tc-99m labeled peptide in inflammatory model rats ([4]; 1 hr. after administration): 4.98 and 4.98 ± 0.23
[T]/[B] ratio of Tc-99m labeled peptide in inflammatory model rats ([4]; 3 hrs. after administration): 4.61 ± 0.49
[T]/[B] ratio of Tc-99m labeled peptide in inflammatory model rats ([4]; 6 hrs. after administration): 3.20 ± 0.39

C(Acm) GC(Acm)GGGKEYKAKVSNKALPAPIEKTISK (C(Acm)GC(Acm)GGGKEYKAKVSNKALPAPIEKTISK; also: technetium-99m label) [Peptide-4]
[T]/[B] ratio of Tc-99m labeled peptide in inflammatory model rats ([4]; 30 mins after administration): 2.47 ± 0.17
[T]/[B] ratio of Tc-99m labeled peptide in inflammatory model rats ([4]; 1 hr. after administration): 4.27 and 4.27 ± 0.26
[T]/[B] ratio of Tc-99m labeled peptide in inflammatory model rats ([4]; 3 hrs. after administration): 3.10 ± 0.20
estimated safe administration relative to the assumed clinical dosage [1, 5]: more than 1,000 times
abnormality in tissue checked with the naked eye (hemostatis, pigmentation, discoloration) [1]: not noted
symptoms such as slobber, vomiting, ocular proptosis, and behavioral abnormality [1]: not observed
extreme change in weight, i.e., weight gain or loss [1]: not observed

C(Acm)GC(Acm)GGKTKPREQQYNSTYRVV (also: technetium-99m label) [Peptide-5]
[T]/[B] ratio of Tc-99m labeled peptide in inflammatory model rats ([4]; 30 mins after administration): 2.61 ± 0.08
[T]/[B] ratio of Tc-99m labeled peptide in inflammatory model rats ([4]; 1 hr. after administration): 4.41 and 4.41 ± 0.62
[T]/[B] ratio of Tc-99m labeled peptide in inflammatory model rats ([4]; 3 hrs. after administration): 3.85 ± 0.63
estimated safe administration relative to the assumed clinical dosage [1, 5]: more than 1,000 times
abnormality in tissue checked with the naked eye (hemostatis, pigmentation, discoloration) [1]: not noted
symptoms such as slobber, vomiting, ocular proptosis, and behavioral abnormality [1]: not observed
extreme change in weight, i.e., weight gain or loss [1]: not observed

C(Acm)GC(Acm)GG[(PELLGGPSV)×3 repeats in tandem]A (C(Acm)GC(Acm)GGPELLGGPSVPELLGGPSVPELLGGPSVA; also: technetium-99m label) [Peptide-7]
[T]/[B] ratio of Tc-99m labeled peptide in inflammatory model rats ([4]; 1 hr. after administration): 3.36 and 3.36 ± 0.31
[T]/[B] ratio of Tc-99m labeled peptide in inflammatory model rats ([4]; 3 hrs. after administration): 2.18 ± 0.39
[T]/[B] ratio of Tc-99m labeled peptide in inflammatory model rats ([4]; 6 hrs. after administration): 2.26 ± 0.20

CGCGGLLGGPSV (cysteine pairing not given here; also: technetium-99m label) [Peptide-2]
[T]/[B] ratio of Tc-99m labeled peptide in inflammatory model rats ([4]; 1 hr. after administration): 3.35 and 3.35 ± 0.33
[T]/[B] ratio of Tc-99m labeled peptide in inflammatory model rats ([4]; 3 hrs. after administration): 2.78 ± 0.23
[T]/[B] ratio of Tc-99m labeled peptide in inflammatory model rats ([4]; 6 hrs. after administration): 2.82 ± 0.17
